Entries after “also recorded” stand apart in the source; their conditions may differ.
What was measured:
INS1 cells = test: Palmitate-induced cell death of INS1 cells, propidium iodide flow cytometry; format: cell-based; conditions: low dose; palmitate 18 hours, compound last 12 hours
Description: LNK-754 was tested using a cell death assay to determine whether it had any effect on palmitate-induced cell death. For Example, one example of such an assay is as follows: INS1 cells were incubated in control medium or in medium containing palmitate for 18 hours and either rapamycin or LNK-754 at 0.25 nM, 0.5 nM, 1 nM, 10 nM, and 100 nM were added for the last 12 hours. At the end of the incubation, the cells were washed with PBS and stained with 1 μg/ml propidium iodide (e.g., Molecular Probes, P3566). FACS data analysis was performed and cell debris was excluded. […] At low dose, LNK-754 behaves similar to rapamycin.

Aβ = Aβ immunohistochemistry, Thioflavin-S and Aβ40/Aβ42 ELISA in APP/PS1 transgenic mice; format: in vivo, mouse
Source text: Immunohistochemistry and quantification of stained cells: For evaluation of α-synuclein immunoreactivity (IR), 5 sagittal cryo-cut sections (10 μm slice thickness) from five different layers were used for counting of IR cells in the cortex and hippocampus. Brain sections were stained with a monoclonal human α-synuclein specific antibody (Alexis®; Cat#804-258-L001; dilution 1:5), followed by a secondary Ab Cy 2-Goat Anti-Rat (Jackson ImmunoResearch®; dilution 1:200). IR positive cells were quantified using specialized image analysis software (Image Pro Plus, version 4.5.1.29). For Tau transgenic animals, 5 μm thick coronal paraffin sections were stained with the monoclonal mouse anti-human TAU-antibodies (AT180—1:100; HT7—1:500) and visualized using an anti-mouse Cy3 secondary antibody (1:500, Jackson Laboratories®). Images were evaluated with ImageProPlus (version 6.2) image analysis software. For APP/PS1 transgenic animals sagittal hemisections (40 μm) were collected and processed for Aβ immunohistochemistry using an 6E10 antibody, Thioflavin-S staining. Primary antibodies were detected by the ABC method.
ELISA quantification of α-Synuclein in the α-Synuclein transgenic animals: Brain homogenate was centrifuged and the supernatant saved as fraction F1. The pellet was washed then resuspended and saved as fraction F2. Plates (Nunc, 464718) were coated with SYN-1 (1:1000, BD Transduction Labs, 610787). Monomeric recombinant α-synuclein was included as an internal standard. Biotinylated antibody FL-140 (1:300, Santa Cruz Biotechnology, sc-10717-B) and ExtrAvidin-Alkaline phosphatase (3:5000, Sigma, E2636) was added followed by pNPP substrate solution (Sigma, N1891). Raw absorbance (405 nm) was then normalized to the total protein concentration of each sample. In the APP/PS1 transgenic animal, brains were homogenized and the supernatant, Faction 1, was separated from the pellet. The pellets were further processed with addition of NP40 and Triton X-100. The supernatant was separated from the pellet as the insoluble membrane, Fraction 2, and was dissolved in 8M Guanidine. To quantify the amount of human Aβ-40 and Aβ-42, ELISA kits were used (The Genetics Company, Zurich, Switzerland).
Mice were treated with LNK-754-TS for two months, tested for performance in the Morris water maze (MWM), and then sacrificed for immunohistochemical (Aβimmunoreactivity) and biochemical (ELISA measurement of Aβ40 and Aβ42) analysis.

APP/PS1 transgenic mice = test: Morris water maze in APP/PS1 transgenic mice; format: in vivo, mouse; conditions: 0.9 mg/kg once every 24 hours, vs vehicle
Description: Animals and treatments: Male and female human WT alpha-synuclein over-expressing transgenic mice^32 at 6 months of age were given vehicle (10% beta-cyclodextrin) or LNK-754-TS (0.09, 0.9 and 9 mg/kg) per oral gavage twice daily for 3 months or animals at 7 months of age were given vehicle (2.5% beta-cyclodextrin) or LNK-754-TS (2 mg/kg) once every three days for 3 months. Male and female TAU transgenic mice expressing TAU441 bearing the missense mutations V337M^50 and R406W under the control of the murine Thy-1 promoter with a CB6xC57BL/6 background were 5 months old at the time when the oral treatment for three months with LNK-754-TS (0.9 and 0.09 mg/kg) as well as vehicle (2.5% beta-cyclodextrin) was started. Female human APP/PS1 (APP (London V7171)/PS1(A246E)) over-expressing transgenic mice were treated with LNK-754-TS (0.9 mg/kg) or vehicle (2.5% beta-cyclodextrin) for 2 months or 12 days.
Morris water maze (MWM) analysis of cognitive performance: In APP/PS1 transgenic animals, swimming behavior in a Morris Water Maze was videotaped and analyzed (Ethovision, Noldus, Wageningen, Netherlands). For mice, a place navigation test was used to locate the hidden platform in five blocks of three trials over three consecutive days. […] The time each mouse needed for location of the platform was measured. […] The time and path length each rat needed to locate the platform was measured. […]

LC3-II protein = LC3-II protein level in SH-SY5Y cells with or without bafilomycin A1; format: cell-based, human
Description: The observed increase in LC3-positive autophagosomes could result, in principle, from either an increased flux through the autophagy pathway or decreased autophagosome degradation (Pankiv, S., et al. J Biol Chem 282, 24131-24145 (2007); Kamada, Y., et al. J Cell Biol 150, 1507-1513 (2000)). […] In order to ascertain an increase in autophagic flux, cells were co-treated with LNK-754-TS and an inhibitor of autophagosome-lysosome fusion, bafilomycin A1 (10 nM). Bafilomycin treatment alone caused a 100% increase in the amount of LC3-II, consistent with the fact that it inhibits autophagosome degradation (FIG. 8c).

[1] = test system: APP processing and secretion; test: APP processing and secretion in a cell culture model of pathogenic Aβ production; format: cell-based
Source text: Finally, it is important to note that LNK-754-TS had no effect on APP processing and secretion in a cell culture model of pathogenic Aβ production (Selkoe, D. J., et al. Ann N Y Acad Sci 777, 57-64 (1996)).

[2] = 0.9 mg/kg once every 24 hr, two months

SMILES | palmitate-induced cell death (INS1 cells) | Thioflavin-S staining in the subiculum (Aβ; [2]) | levels of Aβ40/Aβ42 from whole brain fractions, ELISA (Aβ; [2]) | number of Aβ (6E10) immunoreactive plaques in the subiculum (Aβ; 0.9 mg/kg once every 24 hr, two months, vs vehicle) | Aβ40 or Aβ42 levels, Aβ immunoreactivity or Thio-S staining (Aβ; 0.9 mg/kg, 12 days) | cognitive performance, Morris water maze (APP/PS1 transgenic mice; 12 days) | performance in the Morris water maze (APP/PS1 transgenic mice; two months) | additional increase in LC3-II over bafilomycin alone (LC3-II protein; 100 nM in combination with bafilomycin A1 10 nM) [%] | accumulation of LC3-I or LC3-II protein (LC3-II protein; compound alone, without bafilomycin) | APP processing and secretion [1]
C#Cc1cccc(-c2cc(=O)n(C)c3ccc([C@](O)(c4ccc(Cl)cc4)c4cncn4C)cc23)c1 [LNK-754, (R)-6-[(4-chlorophenyl)-hydroxyl-(1-methyl-1-H-imidazol-5-yl)-methyl]-4-(3-ethynylphenyl)-1-methyl-2-(1H)-quinonlinone] | protects INS1 cells from palmitate toxicity | – | – | – | – | – | – | – | – | –
C#Cc1cccc(-c2cc(=O)n(C)c3ccc([C@](O)(c4ccc(Cl)cc4)c4cncn4C)cc23)c1 [LNK-754-TS, (R)-6-[(4-chlorophenyl)-hydroxyl-(1-methyl-1-H-imidazol-5-yl)-methyl]-4-(3-ethynylphenyl)-1-methyl-2-(1H)-quinonlinone (2S, 3S)-dihydroxybutanedioate] | – | no statistically significant changes | no statistically significant changes | lesser, but still significant, effect; also recorded: significant decrease | no significant reduction | significant cognitive improvement | performed significantly better; also recorded: significant cognitive improvement | 75 | did not cause accumulation | no effect

Reference: patent US20100331363A1, “TREATMENT OF MITOCHONDRIAL DISORDERS USING A FARNESYL TRANSFERASE INHIBITOR” (Link Medicine Corporation, priority 2008, published 2010)
